Test results published in ChEMBL document CHEMBL1122453, “Structure-activity relationships in the antiinflammatory steroids: a pattern-recognition approach” (1983).

Species on record: Homo sapiens
Experiment: Potency relative to fluocinolone 16,17-acetonide in the human vasoconstictor test
Type: functional

Row | SMILES | Potency
1 | CCCCC(=O)O[C@]1(C(=O)CO)CCC2C3C[C@H](F)C4=CC(=O)C=CC4(C)[C@@]3(F)C(O)CC21C (some centres undefined) | 360
2 | CCCC(=O)O[C@]1(C(=O)CO)C(C)CC2C3CCC4=CC(=O)C=CC4(C)[C@@]3(F)C(O)CC21C (some centres undefined) | 168
3 | CCCC(=O)O[C@]1(C(=O)COC(C)=O)CC[C@H]2[C@@H]3C[C@H](F)C4=CC(=O)C=C[C@]4(C)[C@@]3(F)[C@@H](O)C[C@@]21C [DIFLUPREDNATE] | 1170
4 | C[C@@H]1CC2C3CCC4=CC(=O)C=CC4(C)[C@@]3(F)C(O)CC2(C)[C@@]1(O)C(=O)COP(=O)(O)O (some centres undefined) | 2
5 | CC(=O)OCC(=O)[C@@]1(O)[C@@H](C)C[C@H]2[C@@H]3CCC4=CC(=O)C=C[C@]4(C)[C@@]3(F)[C@@H](O)C[C@@]21C [BETAMETHASONE ACETATE] | 18
6 | CCC(=O)O[C@]1(C(=O)CO)[C@@H](C)C[C@H]2[C@@H]3CCC4=CC(=O)C=C[C@]4(C)[C@@]3(F)[C@@H](O)C[C@@]21C | 190
7 | CCC(=O)O[C@]1(C(=O)COC(=O)C(C)C)CCC2C3C[C@H](F)C4=CC(=O)C=CC4(C)[C@@]3(F)C(O)CC21C (some centres undefined) | 1080
8 | CCC(=O)O[C@]1(C(=O)CO)CCC2C3C[C@H](F)C4=CC(=O)C=CC4(C)[C@@]3(F)C(O)CC21C (some centres undefined) | <360
9 | CC(C)C(=O)OCC(=O)[C@@]1(OC(=O)C(C)C)CCC2C3C[C@H](F)C4=CC(=O)C=CC4(C)[C@@]3(F)C(O)CC21C (some centres undefined) | 720
10 | CC(=O)O[C@]1(C(=O)COC(=O)C(C)C)CCC2C3C[C@H](F)C4=CC(=O)C=CC4(C)[C@@]3(F)C(O)CC21C (some centres undefined) | 720
11 | CCCCC(=O)O[C@]1(C(=O)CCl)[C@@H](C)C[C@H]2[C@@H]3CCC4=CC(=O)C=C[C@]4(C)[C@@]3(F)[C@@H](O)C[C@@]21C | 91
12 | CCC(=O)O[C@]1(C(=O)CCl)[C@@H](C)C[C@H]2[C@@H]3CCC4=CC(=O)C=C[C@]4(C)[C@@]3(F)[C@@H](O)C[C@@]21C [CLOBETASOL PROPIONATE] | 1869
13 | CC(C)C(=O)O[C@]1(C(=O)CO)C(C)CC2C3CCC4=CC(=O)C=CC4(C)[C@@]3(F)C(O)CC21C (some centres undefined) | 470
14 | CC(=O)OCC(=O)[C@@]12OC(C)(C)O[C@@H]1C[C@H]1[C@@H]3C[C@H](F)C4=CC(=O)C=C[C@]4(C)[C@@]3(F)[C@@H](O)C[C@@]12C [FLUOCINONIDE] | 300
15 | CCCCC(=O)O[C@]1(C(=O)CO)CCC2C3C[C@H](F)C4=CC(=O)CCC4(C)[C@@]3(F)C(O)CC21C (some centres undefined) | 360
16 | CCC(=O)O[C@]1(C(=O)CO)[C@@H](C)C[C@H]2[C@@H]3CCC4=CC(=O)C=C[C@]4(C)[C@@]3(Cl)[C@@H](O)C[C@@]21C [BECLOMETHASONE 17-MONOPROPIONATE] | 360
17 | CC(=O)OCC(=O)[C@@]1(OC(C)=O)CCC2C3C[C@H](F)C4=CC(=O)C=CC4(C)[C@@]3(F)C(O)CC21C (some centres undefined) | 360
18 | CCCC(=O)O[C@]1(C(=O)COC(=O)C(C)C)CCC2C3C[C@H](F)C4=CC(=O)C=CC4(C)[C@@]3(F)C(O)CC21C (some centres undefined) | 1080
19 | CCOC(=O)[C@@]1(OC(C)=O)[C@@H](C)CC2C3CCC4=CC(=O)C=CC4(C)C3(F)[C@@H](O)CC21C (some centres undefined) | 16
20 | CCC(=O)O[C@]1(C(=O)O)[C@@H](C)CC2C3CCC4=CC(=O)C=CC4(C)C3(F)[C@@H](O)CC21C (some centres undefined) | <1
21 | CC(C)C(=O)O[C@]1(C(=O)CO)CCC2C3C[C@H](F)C4=CC(=O)C=CC4(C)[C@@]3(F)C(O)CC21C (some centres undefined) | <360
22 | CCCC(=O)OCC(=O)[C@@]1(O)C(C)CC2C3CCC4=CC(=O)C=CC4(C)[C@@]3(F)C(O)CC21C (some centres undefined) | 85

Row | SMILES | Potency
23 | CC1CC2C3CCC4=CC(=O)C=CC4(C)[C@@]3(Cl)C(O)CC2(C)[C@@]1(O)C(=O)CO (some centres undefined) | 0.8
24 | CC(=O)O[C@]1(C(C)=O)CCC2C3C[C@H](F)C4=CC(=O)C=CC4(C)[C@@]3(F)C(O)CC21C (some centres undefined) | 540
25 | C[C@H]1C[C@H]2C3CCC4=CC(=O)C=C[C@]4(C)[C@@]3(F)[C@@H](O)C[C@]2(C)[C@@]1(O)C(=O)O (some centres undefined) | <1
26 | C[C@]12C=CC(=O)C=C1[C@@H](F)C[C@@H]1[C@@H]2[C@@H](O)C[C@@]2(C)[C@H]1CC[C@]2(O)C(=O)CO [FLUPREDNISOLONE] | 1
27 | CCCCC(=O)OCC(=O)[C@@]1(O)C(C)CC2C3CCC4=CC(=O)C=CC4(C)[C@@]3(F)C(O)CC21C (some centres undefined) | 26
28 | CC(=O)O[C@]1(C(=O)CCl)[C@@H](C)CC2C3CCC4=CC(=O)C=CC4(C)[C@@]3(F)[C@@H](O)CC21C (some centres undefined) | 812
29 | CC(C)C(=O)OCC(=O)[C@@]1(O)C(C)CC2C3CCC4=CC(=O)C=CC4(C)[C@@]3(F)C(O)CC21C (some centres undefined) | 90
30 | CCCC(=O)OCC(=O)[C@@]1(OC(=O)CC)CCC2C3C[C@H](F)C4=CC(=O)C=CC4(C)[C@@]3(F)C(O)CC21C (some centres undefined) | 1260
31 | CC12C=CC(=O)C=C1[C@@H](F)CC1C3CC[C@](O)(C(=O)CO)C3(C)CC(O)[C@@]12F (some centres undefined) | <360
32 | CCC(=O)OCC(=O)[C@@]1(OC(=O)CC)[C@@H](C)C[C@H]2[C@@H]3CCC4=CC(=O)C=C[C@]4(C)[C@@]3(Cl)[C@@H](O)C[C@@]21C [BECLOMETHASONE DIPROPIONATE] | 500
33 | CCC(=O)O[C@]1(C(C)=O)C(C)CC2C3CCC4=CC(=O)C=CC4(C)[C@@]3(F)C(O)CC21C (some centres undefined) | 1170
34 | CCC(=O)OCC(=O)[C@@]1(OC(=O)CC)CCC2C3C[C@H](F)C4=CC(=O)C=CC4(C)[C@@]3(F)C(O)CC21C (some centres undefined) | 853
35 | CCCCC(=O)O[C@]1(C(=O)CO)CCC2C3CCC4=CC(=O)C=CC4(C)C3C(O)CC21C (some centres undefined) | <1
36 | CCCCC(=O)O[C@]1(C(=O)O)[C@@H](C)CC2C3CCC4=CC(=O)C=CC4(C)C3(F)[C@@H](O)CC21C (some centres undefined) | <1
37 | CC(=O)O[C@]1(C(=O)CO)CCC2C3C[C@H](F)C4=CC(=O)C=CC4(C)[C@@]3(F)C(O)CC21C (some centres undefined) | <360
38 | CC(C)C(=O)OC1(C(=O)CCl)[C@@H](C)CC2C3CCC4=CC(=O)C=CC4(C)[C@]3(F)[C@@H](O)CC21C (some centres undefined) | 378
39 | CCCC(=O)O[C@]1(C(=O)OCC)[C@@H](C)CC2C3CCC4=CC(=O)C=CC4(C)C3(F)[C@@H](O)CC21C (some centres undefined) | 40
40 | CCCCC(=O)O[C@]1(C(=O)COC(C)=O)CCC2C3C[C@H](F)C4=CC(=O)C=CC4(C)[C@@]3(F)C(O)CC21C (some centres undefined) | 720
41 | CC12CCC(=O)C=C1CCC1C2C(O)CC2(C)C1CC[C@]2(O)C(=O)COP(=O)(O)O (some centres undefined) | 0.01
42 | COC(=O)[C@@]1(OC(C)=O)[C@@H](C)CC2C3CCC4=CC(=O)C=CC4(C)[C@@]3(F)[C@@H](O)CC21C (some centres undefined) | 385
43 | CCCC(=O)O[C@]1(C(=O)CO)CCC2C3C[C@H](F)C4=CC(=O)C=CC4(C)[C@@]3(F)C(O)CC21C (some centres undefined) | <360
44 | CC(=O)[C@@]1(O)CCC2C3CCC4=CC(=O)CCC4(C)C3C(O)CC21C (some centres undefined) | 0.4

Row | SMILES | Potency
45 | CCC(=O)OCC(=O)[C@@]1(OC(=O)C(C)C)CCC2C3C[C@H](F)C4=CC(=O)C=CC4(C)[C@@]3(F)C(O)CC21C (some centres undefined) | 900
46 | CC(=O)[C@H]1CC[C@H]2[C@@H]3C[C@H](C)C4=CC(=O)CC[C@]4(C)[C@H]3[C@@H](O)C[C@]12C [MEDRYSONE] | <1
47 | CCOC(=O)[C@@]1(OC(=O)CC)[C@@H](C)CC2C3CCC4=CC(=O)C=CC4(C)[C@@]3(F)[C@@H](O)CC21C (some centres undefined) | 75
48 | CCC(=O)O[C@]1(C(=O)OCCl)[C@@H](C)CC2C3CCC4=CC(=O)C=CC4(C)[C@@]3(F)[C@@H](O)CC21C (some centres undefined) | 400
49 | CCC(=O)OCC(=O)[C@@]1(O)[C@@H](C)C[C@H]2[C@@H]3CCC4=CC(=O)C=C[C@]4(C)[C@@]3(F)[C@@H](O)C[C@@]21C | 40
50 | CCCOC(=O)[C@@]1(O)[C@@H](C)CC2C3CCC4=CC(=O)C=CC4(C)C3(F)[C@@H](O)CC21C (some centres undefined) | 5
51 | C[C@]12C=CC(=O)C=C1CC[C@@H]1[C@@H]2[C@@H](O)C[C@@]2(C)[C@H]1CC[C@]2(O)C(=O)COP(=O)(O)O [PREDNISOLONE PHOSPHORIC ACID] | 0.1
52 | CCCC(=O)OCC(=O)[C@@]1(OC(=O)CCC)CC[C@H]2[C@@H]3C[C@H](F)C4=CC(=O)C=C[C@]4(C)[C@@]3(F)[C@@H](O)C[C@@]21C | 540
53 | CCCOC(=O)[C@@]1(OC(=O)CC)[C@@H](C)CC2C3CCC4=CC(=O)C=CC4(C)C3(F)[C@@H](O)CC21C (some centres undefined) | 30
54 | CCC(=O)O[C@]1(C(=O)COC(C)=O)CCC2C3C[C@H](F)C4=CC(=O)C=CC4(C)[C@@]3(F)C(O)CC21C (some centres undefined) | 1080
55 | CCC(=O)O[C@]1(C(=O)COC(=O)C(C)(C)C)CCC2C3C[C@H](F)C4=CC(=O)C=CC4(C)[C@@]3(F)C(O)CC21C (some centres undefined) | 720
56 | CCCC(=O)OC1(C(=O)CCl)[C@@H](C)CC2C3CCC4=CC(=O)C=C[C@]4(C)[C@@]3(F)[C@@H](O)C[C@@]21C (some centres undefined) | 1166
57 | CCCC(=O)O[C@]1(C(=O)OC)[C@@H](C)CC2C3CCC4=CC(=O)C=CC4(C)[C@@]3(F)[C@@H](O)CC21C (some centres undefined) | 175
58 | CCC(=O)O[C@]1(C(C)=O)CCC2C3C[C@H](F)C4=CC(=O)C=CC4(C)[C@@]3(F)C(O)CC21C (some centres undefined) | 900
59 | C[C@@H]1C[C@H]2[C@@H]3C[C@H](F)C4=CC(=O)C=C[C@]4(C)[C@@]3(F)[C@@H](O)C[C@]2(C)[C@@]1(O)C(=O)COC(=O)C(C)(C)C [FLUMETHASONE PIVALATE] | 360
60 | CCC(=O)OCC(=O)[C@@]1(OC(=O)CC)[C@@H](C)C[C@H]2[C@@H]3CCC4=CC(=O)C=C[C@]4(C)[C@@]3(F)[C@@H](O)C[C@@]21C [BETAMETHASONE DIPROPIONATE] | 1300
61 | CCCOC(=O)[C@@]1(OC(=O)CCC)[C@@H](C)CC2C3CCC4=CC(=O)C=CC4(C)C3(F)[C@@H](O)CC21C (some centres undefined) | 40
62 | CC(=O)OCC(=O)[C@@]1(O)[C@H](C)C[C@H]2[C@@H]3CCC4=CC(=O)C=C[C@]4(C)[C@@]3(F)[C@@H](O)C[C@@]21C [DEXAMETHASONE ACETATE] | 8
63 | CCCCC(=O)O[C@]1(C(=O)COC(C)=O)CC[C@H]2[C@@H]3C[C@H](F)C4=CC(=O)CC[C@]4(C)[C@@]3(F)[C@@H](O)C[C@@]21C | 360
64 | CC(=O)O[C@]1(C(=O)CO)C(C)CC2C3CCC4=CC(=O)C=CC4(C)[C@@]3(F)C(O)CC21C (some centres undefined) | 114
